Measured values as given in ChEMBL document CHEMBL1125048, “Affinity of 2-(tetrahydroisoquinolin-2-ylmethyl)- and 2-(isoindolin-2-ylmethyl)imidazolines for alpha-adrenoceptors. Differential affinity of imidazolines for the [3H]idazoxan-labeled alpha 2-adrenoceptor vs the [3H]yohimbine-labeled site” (J Med Chem, 1990).

Key:
[1] = molecular target: T1, Adrenergic receptor alpha-2 (Rattus norvegicus, UniProt P22086+P19328+P22909); assay: Binding affinity to the alpha-2 adrenergic receptor of rat cerebral cortex assayed using [3H]idazoxan as radioligand; assay type: tissue-based
T1 sequence (P22086 whole entry): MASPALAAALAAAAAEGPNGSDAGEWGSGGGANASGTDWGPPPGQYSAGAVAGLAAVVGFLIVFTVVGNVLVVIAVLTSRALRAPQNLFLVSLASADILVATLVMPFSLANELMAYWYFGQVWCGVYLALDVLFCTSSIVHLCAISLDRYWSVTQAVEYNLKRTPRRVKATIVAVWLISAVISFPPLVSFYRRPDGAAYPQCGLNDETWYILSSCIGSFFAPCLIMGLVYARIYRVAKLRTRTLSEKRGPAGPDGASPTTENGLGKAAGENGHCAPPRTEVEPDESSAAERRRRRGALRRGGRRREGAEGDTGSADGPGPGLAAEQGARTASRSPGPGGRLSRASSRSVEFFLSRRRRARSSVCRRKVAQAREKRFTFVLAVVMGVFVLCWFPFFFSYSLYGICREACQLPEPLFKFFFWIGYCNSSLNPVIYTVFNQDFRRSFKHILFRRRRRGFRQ
T1 sequence (P19328 whole entry): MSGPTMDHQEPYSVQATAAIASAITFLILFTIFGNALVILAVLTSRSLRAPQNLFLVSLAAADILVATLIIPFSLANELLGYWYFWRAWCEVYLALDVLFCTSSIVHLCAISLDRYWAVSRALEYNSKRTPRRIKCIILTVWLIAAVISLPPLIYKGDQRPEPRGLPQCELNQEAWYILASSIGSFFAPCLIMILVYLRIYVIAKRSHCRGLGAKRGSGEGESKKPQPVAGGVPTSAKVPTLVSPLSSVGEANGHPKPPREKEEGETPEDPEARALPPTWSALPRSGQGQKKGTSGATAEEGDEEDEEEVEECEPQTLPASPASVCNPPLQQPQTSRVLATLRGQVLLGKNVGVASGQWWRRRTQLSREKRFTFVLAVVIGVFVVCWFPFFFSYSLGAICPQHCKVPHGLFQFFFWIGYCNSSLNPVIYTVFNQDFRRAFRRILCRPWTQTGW
T1 sequence (P22909 whole entry): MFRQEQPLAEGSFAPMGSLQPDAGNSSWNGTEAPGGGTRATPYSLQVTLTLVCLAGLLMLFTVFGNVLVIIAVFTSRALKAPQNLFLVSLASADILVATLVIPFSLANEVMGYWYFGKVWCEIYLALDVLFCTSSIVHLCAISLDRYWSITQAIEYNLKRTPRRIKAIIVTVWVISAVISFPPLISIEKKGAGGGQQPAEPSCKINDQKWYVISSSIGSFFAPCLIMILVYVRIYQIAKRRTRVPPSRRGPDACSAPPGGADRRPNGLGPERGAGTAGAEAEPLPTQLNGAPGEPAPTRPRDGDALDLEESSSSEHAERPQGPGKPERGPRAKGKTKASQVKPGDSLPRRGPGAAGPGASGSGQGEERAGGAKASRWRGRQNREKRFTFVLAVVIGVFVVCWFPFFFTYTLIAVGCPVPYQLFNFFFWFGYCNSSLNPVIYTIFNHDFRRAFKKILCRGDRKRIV

[2] = molecular target: T1, Adrenergic receptor alpha-2; assay: Binding affinity to alpha-2 adrenergic receptor of rat cerebral cortex assayed using [3H]yohimbine as radioligand; assay type: tissue-based
[3] = molecular target: T2, Adrenergic receptor alpha-1 (Rattus norvegicus, UniProt P15823+P23944+P43140); assay: Binding affinity determined to alpha-1 adrenergic receptor of rat cerebral cortex using [3H]prazosin as radioligand; assay type: tissue-based
T2 sequence (P15823 whole entry): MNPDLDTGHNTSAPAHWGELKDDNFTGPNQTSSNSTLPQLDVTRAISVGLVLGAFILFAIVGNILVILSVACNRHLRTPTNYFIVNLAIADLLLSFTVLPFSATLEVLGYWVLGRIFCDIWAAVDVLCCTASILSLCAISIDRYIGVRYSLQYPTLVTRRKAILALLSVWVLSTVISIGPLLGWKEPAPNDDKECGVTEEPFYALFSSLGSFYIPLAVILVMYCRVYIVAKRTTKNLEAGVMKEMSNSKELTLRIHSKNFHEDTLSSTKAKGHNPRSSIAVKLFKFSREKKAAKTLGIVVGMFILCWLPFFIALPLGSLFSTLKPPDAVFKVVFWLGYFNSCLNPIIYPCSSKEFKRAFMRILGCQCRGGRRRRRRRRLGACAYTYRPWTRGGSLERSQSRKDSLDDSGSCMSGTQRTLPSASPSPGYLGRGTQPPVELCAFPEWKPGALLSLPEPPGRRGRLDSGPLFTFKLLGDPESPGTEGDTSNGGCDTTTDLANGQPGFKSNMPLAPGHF
T2 sequence (P23944 whole entry): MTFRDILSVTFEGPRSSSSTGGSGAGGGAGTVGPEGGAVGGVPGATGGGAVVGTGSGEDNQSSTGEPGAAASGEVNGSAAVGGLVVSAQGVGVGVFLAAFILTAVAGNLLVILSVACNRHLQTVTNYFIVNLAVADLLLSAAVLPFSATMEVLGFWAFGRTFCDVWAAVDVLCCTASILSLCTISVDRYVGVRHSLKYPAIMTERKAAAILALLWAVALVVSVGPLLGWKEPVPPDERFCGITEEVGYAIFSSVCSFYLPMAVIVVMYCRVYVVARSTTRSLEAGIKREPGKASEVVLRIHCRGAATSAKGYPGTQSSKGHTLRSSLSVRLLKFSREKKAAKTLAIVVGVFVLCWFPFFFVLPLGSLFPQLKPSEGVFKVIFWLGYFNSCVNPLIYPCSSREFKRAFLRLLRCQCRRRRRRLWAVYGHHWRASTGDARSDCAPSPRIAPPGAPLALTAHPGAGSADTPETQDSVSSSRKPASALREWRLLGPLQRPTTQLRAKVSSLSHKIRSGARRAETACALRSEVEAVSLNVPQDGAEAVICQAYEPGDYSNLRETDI
T2 sequence (P43140 whole entry): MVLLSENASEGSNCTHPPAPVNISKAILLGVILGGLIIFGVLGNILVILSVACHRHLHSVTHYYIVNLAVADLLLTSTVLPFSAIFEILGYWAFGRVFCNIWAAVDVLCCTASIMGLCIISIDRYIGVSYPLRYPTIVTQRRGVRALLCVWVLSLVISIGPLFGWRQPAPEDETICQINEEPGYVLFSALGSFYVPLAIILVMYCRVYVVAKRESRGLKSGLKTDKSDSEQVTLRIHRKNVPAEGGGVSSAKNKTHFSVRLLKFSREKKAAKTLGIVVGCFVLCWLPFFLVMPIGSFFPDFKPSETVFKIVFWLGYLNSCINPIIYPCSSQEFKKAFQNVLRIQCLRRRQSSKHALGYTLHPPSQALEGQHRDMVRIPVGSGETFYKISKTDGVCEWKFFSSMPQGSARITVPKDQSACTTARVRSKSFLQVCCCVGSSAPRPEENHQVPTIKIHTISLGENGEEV

[4] = molecular target: T1, Adrenergic receptor alpha-2; assay: Binding affinity was determined against alpha-2 adrenergic receptor of rat cerebral cortex using [3H]idazoxan as radioligand; assay type: tissue-based
[5] = molecular target: T1, Adrenergic receptor alpha-2; assay: Binding affinity was determined against alpha-2 adrenergic receptor of rat cerebral cortex using [3H]yohimbine as radioligand; assay type: tissue-based
[6] = molecular target: T3, Adrenergic receptor alpha-2 (Rattus norvegicus) (UniProt P22086+P19328+P22909); assay: Selectivity ratio is the antilog of the [3H]-yohimbine pKi minus the [3H]prazosin pKi; assay type: protein assay
[7] = molecular target: T3, Adrenergic receptor alpha-2 (Rattus norvegicus); assay: Antilog of the [3H]-idazoxan pKi minus the [3H]yohimbine pKi was determined; assay type: protein assay

| Log Ki [1] | Log Ki [2] | Log Ki [3] | Log Ki [4] | Log Ki [5] | Selectivity ratio [6] | Ratio [7] | Compound |
| --- | --- | --- | --- | --- | --- | --- | --- |
| -7.62 | -6.74 | -5.2 |  |  |  |  | CC1c2cccc(Cl)c2CCN1CC1=NCCN1.Cl.Cl (stereo not drawn) |
| -7.32 | -7.19 | -5.14 |  |  |  |  | CC1c2ccccc2CCN1CC1=NCCN1.Cl.Cl (stereo not drawn) |
|  |  | -5.19 | -7.02 | -7.71 | 332 | 0.2 | COc1ccc(OC)c2c1CCN(CC1=NCCN1)C2C.Cl.Cl (stereo not drawn) |
| -8.38 | -7.71 | -6.05 |  |  |  |  | Cl.Cl.Clc1cccc2c1CN(CC1=NCCN1)C2 |
| -8.12 | -7.14 | -5.5 |  |  |  |  | Cl.Cl.Clc1ccc(Cl)c2c1CCN(CC1=NCCN1)C2 |
| -7.8 | -7.65 | -5.68 |  |  |  |  | Cl.Cl.Clc1cccc2c1CCN(CC1=NCCN1)C2 |
|  |  | -5.8 | -8.23 | -6.67 | 7 | 36 | Cl.Cl.Clc1cccc2c1CN(CC1=NCCN1)CC2 |
| -6.31 | -6.16 | < -5 |  |  |  |  | CCC1c2ccccc2CCN1CC1=NCCN1.Cl.Cl (stereo not drawn) |

The next lines start with the compound.

| Compound | Log Ki [1] | Log Ki [2] | Log Ki [3] | Log Ki [4] | Log Ki [5] | Selectivity ratio [6] | Ratio [7] |
| --- | --- | --- | --- | --- | --- | --- | --- |
| Cl.Cl.Fc1cccc2c1CN(CC1=NCCN1)CC2 | -8.27 | -7.25 | -5.5 |  |  |  |  |
| Cl.Nc1cccc2c1CCN(CC1=NCCN1)C2 | -6.99 | -6.17 | < -5 |  |  |  |  |
| CC1(C)c2ccccc2CCN1CC1=NCCN1.Cl.Cl | -6.68 | -6 | < -5 |  |  |  |  |
| Cl.Cl.Clc1ccc2c(c1Cl)CN(CC1=NCCN1)CC2 | -7.68 | -6.52 | < -5 |  |  |  |  |
| Cl.Cl.c1ccc2c(c1)CN(CC1=NCCN1)C2 |  |  | -5.43 | -8.07 | -6.91 | 30 | 14 |
| COc1cc2c(cc1OC)CN(CC1=NCCN1)CC2.Cl.Cl | -6.13 | -5.87 | < -5 |  |  |  |  |
| Cc1cccc2c1CCN(CC1=NCCN1)C2.Cl.Cl | -7.38 | -6.57 | -5.26 |  |  |  |  |
| Cl.Cl.Clc1ccc2c(c1Cl)CCN(CC1=NCCN1)C2 | -7.67 | -6.42 | < -5 |  |  |  |  |
| COc1ccc2c(c1OC)CCN(CC1=NCCN1)C2.Cl.Cl |  |  | < -5 | -6.24 | -6.44 | 28 | 0.6 |
| CC1Cc2ccccc2CN1CC1=NCCN1.Cl.Cl (stereo not drawn) | -7.38 | -6.9 | < -5 |  |  |  |  |
| COc1cccc2c1CCN(CC1=NCCN1)C2.Cl.Cl | -8 | -7.07 | -4.72 |  |  |  |  |
| Cl.Cl.Clc1ccc2c(c1)CCN(CC1=NCCN1)C2 |  |  | < -5 | -6.83 | -6.18 | 15 | 4 |
| Cl.Cl.c1ccc2c(c1)CCN(CC1=NCCN1)C2 | -7.77 | -6.32 | -5.67 |  |  |  |  |
| C=CCC1c2ccccc2CCN1CC1=NCCN1.Cl.Cl (stereo not drawn) | -6.41 | -5.97 | < -5 |  |  |  |  |
| Cl.Cl.O=[N+]([O-])c1cccc2c1CCN(CC1=NCCN1)C2 | -7.14 | -6.13 | < -5 |  |  |  |  |
| COc1ccc(OC)c2c1CCN(CC1=NCCN1)C2.Cl.Cl | -7.8 | -7.51 | -4.8 |  |  |  |  |
| COc1cc2c(c(OC)c1)CN(CC1=NCCN1)CC2.Cl.Cl | -7.2 | -6.29 | < -5 |  |  |  |  |
| Cl.Cl.Fc1cccc2c1CCN(CC1=NCCN1)C2 | -8.39 | -7.48 | -5.55 |  |  |  |  |
